Drawing on ChEMBL document CHEMBL2034966, “Bidirectional fluorescence properties of pyrene-based peroxisome proliferator-activated receptor (PPAR) α/δ dual agonist” (Bioorg Med Chem, 2012), this text covers Activity for 1 compound.

The target in experiment [1] is T1, Peroxisome proliferator-activated receptor alpha (Homo sapiens) (UniProt Q07869).
T1 sequence (whole entry): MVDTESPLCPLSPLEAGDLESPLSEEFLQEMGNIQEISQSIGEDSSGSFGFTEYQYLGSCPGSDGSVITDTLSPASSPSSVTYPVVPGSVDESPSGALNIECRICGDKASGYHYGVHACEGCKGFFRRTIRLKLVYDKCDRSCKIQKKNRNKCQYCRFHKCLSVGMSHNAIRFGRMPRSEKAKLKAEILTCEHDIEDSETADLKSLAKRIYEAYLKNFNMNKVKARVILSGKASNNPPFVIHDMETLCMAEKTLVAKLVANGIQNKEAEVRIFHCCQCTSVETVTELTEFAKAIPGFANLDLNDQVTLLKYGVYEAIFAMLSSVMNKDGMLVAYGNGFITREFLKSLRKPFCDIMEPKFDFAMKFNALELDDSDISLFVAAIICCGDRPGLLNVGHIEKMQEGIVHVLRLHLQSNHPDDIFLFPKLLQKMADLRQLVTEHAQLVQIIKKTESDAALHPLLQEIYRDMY
Nature of the experiment: Binding affinity to N-terminal His-tagged human PPARalpha ligand binding domain assessed as increase in fluorescence at 500 nM by fluorometry.

In experiment [2] the test system is T2, Peroxisome proliferator-activated receptor alpha (Homo sapiens), Q07869 [L258W].
T2 sequence (whole entry): T1 sequence (whole entry) with L258W
Description: Binding affinity to N-terminal His-tagged human PPARalpha L258W mutant ligand binding domain assessed as increase in fluorescence at 500 nM by fluorometry.

The species named for experiment [3] is Homo sapiens. Nature of the experiment: Binding affinity to N-terminal His-tagged human PPARdelta W264L mutant ligand binding domain assessed as increase in fluorescence at 500 nM by fluorometry.
For experiment [4], the target named is T3, Peroxisome proliferator-activated receptor delta (Homo sapiens) (UniProt Q03181).
T3 sequence (whole entry): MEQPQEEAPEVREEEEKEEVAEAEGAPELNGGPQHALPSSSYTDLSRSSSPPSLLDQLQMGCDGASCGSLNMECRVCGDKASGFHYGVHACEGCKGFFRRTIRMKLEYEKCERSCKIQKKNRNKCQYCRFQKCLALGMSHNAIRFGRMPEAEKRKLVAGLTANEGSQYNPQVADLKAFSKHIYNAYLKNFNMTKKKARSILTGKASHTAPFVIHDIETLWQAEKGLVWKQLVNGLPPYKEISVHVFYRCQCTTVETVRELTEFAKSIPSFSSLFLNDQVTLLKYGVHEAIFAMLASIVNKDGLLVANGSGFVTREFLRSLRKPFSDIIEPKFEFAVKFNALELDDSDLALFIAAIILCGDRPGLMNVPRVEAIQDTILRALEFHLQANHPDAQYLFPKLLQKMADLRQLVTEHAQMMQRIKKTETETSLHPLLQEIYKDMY
Nature of the experiment: Binding affinity to N-terminal His-tagged human PPARdelta ligand binding domain assessed as decrease in fluorescence at 500 nM by fluorometry.

For experiment [5], the species on record is Homo sapiens. Description: Binding affinity to N-terminal His-tagged human PPARdelta W264A mutant ligand binding domain assessed as increase in fluorescence at 500 nM by fluorometry.
For experiment [6], the species on record is Homo sapiens. Nature of the experiment: Binding affinity to N-terminal His-tagged human PPARdelta W256A mutant ligand binding domain assessed as increase in fluorescence at 500 nM by fluorometry.
The species named for experiment [7] is Homo sapiens. Description: Binding affinity to N-terminal His-tagged human PPARdelta W225A mutant ligand binding domain assessed as decrease in fluorescence at 500 nM by fluorometry.

Numbering of substitutions follows the chain as printed. Active and inactive are the calls of the source. The rule behind the calls is not given here.

Take `CC[C@@H](Cc1ccc(OC)c(CNC(=O)c2ccc3ccc4cccc5ccc2c3c45)c1)C(=O)O`: the result in experiment [1], in experiment [3], in experiment [4], in experiment [5] and in experiment [7] was Active. In addition, the result in experiment [2] and in experiment [6] was inactive.
